From ChEMBL document CHEMBL3813664, “Synthesis and evaluation of biphenyl derivatives as potential downregulators of VEGF protein secretion and telomerase-related gene expressions” (Bioorg Med Chem, 2016)
≈ marks a conversion by molar mass, not a printed value.

Assays:
MCF7 = experiment: Cytotoxicity against human MCF7 cells assessed as reduction in cell growth after 3 days by MTT assay; assay type: functional, cell-based; conditions: MCF7, 72 h
HT-29 [1] = experiment: Cytotoxicity against human HT-29 cells assessed as reduction in cell growth after 3 days by MTT assay; assay type: functional, cell-based; conditions: HT-29, 72 h
[2] = Therapeutic index, ratio of IC50 for HEK293 cells to IC50 for human HT-29 cells; assay type: cell-based; conditions: HEK293 cells versus HT-29 cells, read-out: Ratio IC50
HEK293 = experiment: Cytotoxicity against HEK293 cells assessed as reduction in cell growth after 3 days by MTT assay; assay type: cell-based; conditions: Homo sapiens, HEK293, 72 h
[3] = Therapeutic index, ratio of IC50 for HEK293 cells to IC50 for human MCF7 cells; assay type: cell-based; conditions: HEK293 cells versus MCF7 cells, read-out: Ratio IC50
HT-29 [4] = experiment: Downregulation of VEGFA-165 secretion in human HT-29 cells assessed as protein secretion levels at 3 ug/ml after 72 hrs by ELISA relative to control; assay type: functional
HT-29 [5] = experiment: Downregulation of TERT gene expression in human HT-29 cells assessed as gene expression levels at 3 ug/ml after 48 hrs by RT-qPCR analysis relative to control; assay type: functional
HT-29 [6] = experiment: Downregulation of c-Myc gene expression in human HT-29 cells assessed as gene expression levels at 3 ug/ml after 48 hrs by RT-qPCR analysis relative to control; assay type: functional
HT-29 [7] = experiment: Downregulation of VEGFA gene expression in human HT-29 cells assessed as gene expression levels at 3 ug/ml after 48 hrs by RT-qPCR analysis relative to control; assay type: functional

| Structure (SMILES) | IC50 (MCF7) [µg/mL] | IC50 (HT-29 [1]) [µg/mL] | selectivity ratio [2] | IC50 (HEK293) [µg/mL] | selectivity ratio [3] | Activity (HT-29 [4]) [%] | Activity (HT-29 [5]) [%] | Activity (HT-29 [6]) [%] | Activity (HT-29 [7]) [%] |
| --- | --- | --- | --- | --- | --- | --- | --- | --- | --- |
| COc1ccc(-c2ccc(O)cc2)cc1 | 53 (≈ 265 µM) | > 100 | < 0.1 | 2 (≈ 9.99 µM) | < 0.1 | – | – | – | – |
| Oc1ccc(-c2cccc(O)c2)cc1 | > 100 | 3.4 (≈ 18.3 µM) | 9 | 31 (≈ 166 µM) | 9 | 52 | 30 | 39 | 35 |
| Nc1ccccc1-c1cccc(O)c1 | 16 (≈ 86.4 µM) | 9.2 (≈ 49.7 µM) | 1.1 | 10.5 (≈ 56.7 µM) | 0.7 | 48 | 77 | 38 | 54 |
| Nc1ccc(-c2ccccc2)cc1 [BIPHENYL-4-AMINE] | 1.4 (≈ 8.27 µM) | > 100 | – | > 100 | > 69 | – | – | – | – |
| Oc1cccc(-c2ccccc2)c1 | 27.4 (≈ 161 µM) | 28 (≈ 165 µM) | 0.9 | 25 (≈ 147 µM) | 0.9 | – | – | – | – |
| Nc1cccc(-c2ccccc2)c1 | 60 (≈ 355 µM) | 42 (≈ 248 µM) | 1.3 | 54 (≈ 319 µM) | 0.9 | – | – | – | – |
| Oc1ccc(-c2ccccc2O)cc1 | > 100 | 1.4 (≈ 7.52 µM) | 38 | 54 (≈ 290 µM) | – | 62 | 11 | 11 | 16 |
| COc1ccc(-c2ccccc2O)cc1OC | 55 (≈ 239 µM) | > 100 | < 0.2 | 23 (≈ 99.9 µM) | 0.4 | – | – | – | – |
| Oc1ccccc1-c1ccccc1 [2-PHENYLPHENOL] | 51 (≈ 300 µM) | 55 (≈ 323 µM) | 0.6 | 31.4 (≈ 184 µM) | 0.6 | – | – | – | – |
| COc1ccccc1-c1ccccc1 | 1.6 (≈ 8.68 µM) | 51 (≈ 277 µM) | 1 | 52 (≈ 282 µM) | 33 | – | – | – | – |
| COc1ccc(-c2ccc(N)cc2)c(OC)c1 | > 100 | 2.2 (≈ 9.6 µM) | 10 | 22 (≈ 96 µM) | < 0.2 | 51 | 40 | 39 | 41 |
| Nc1ccccc1-c1ccccc1O | 56 (≈ 302 µM) | 44 (≈ 238 µM) | 1.2 | 54.1 (≈ 292 µM) | 1 | – | – | – | – |
| COc1ccccc1-c1ccccc1O | > 100 | 2.7 (≈ 13.5 µM) | 20 | 54 (≈ 270 µM) | < 0.5 | 33 | 3 | 6 | 17 |
| COc1ccc(-c2ccc(N)cc2)cc1OC | 5.5 (≈ 24 µM) | 2 (≈ 8.72 µM) | 12 | 23 (≈ 100 µM) | 4 | 48 | 100 | 92 | 48 |
| COc1ccccc1-c1ccc(O)cc1 | 55 (≈ 275 µM) | 49 (≈ 245 µM) | 0.9 | 44 (≈ 220 µM) | 0.8 | – | – | – | – |
| COc1ccc(-c2cccc(O)c2)cc1 | 48 (≈ 240 µM) | 72 (≈ 360 µM) | 0.2 | 14.6 (≈ 72.9 µM) | 0.3 | – | – | – | – |
| COc1ccc(-c2ccccc2N)c(OC)c1 | 56 (≈ 244 µM) | 56 (≈ 244 µM) | > 2 | > 100 | > 2 | – | – | – | – |

| Structure (SMILES) | IC50 (MCF7) [µg/mL] | IC50 (HT-29 [1]) [µg/mL] | selectivity ratio [2] | IC50 (HEK293) [µg/mL] | selectivity ratio [3] | Activity (HT-29 [4]) [%] | Activity (HT-29 [5]) [%] | Activity (HT-29 [6]) [%] | Activity (HT-29 [7]) [%] |
| --- | --- | --- | --- | --- | --- | --- | --- | --- | --- |
| COc1ccc(-c2ccccc2)c(OC)c1 | > 100 | 55.2 (≈ 258 µM) | 0.5 | 27 (≈ 126 µM) | < 0.3 | – | – | – | – |
| Nc1cccc(-c2ccc(O)cc2)c1 | 6.5 (≈ 35.1 µM) | 5.4 (≈ 29.2 µM) | > 18 | > 100 | > 15 | 55 | 78 | 39 | 42 |
| COc1ccc(-c2cccc(O)c2)cc1OC | 48 (≈ 208 µM) | 29 (≈ 126 µM) | 0.8 | 23.1 (≈ 100 µM) | 0.5 | – | – | – | – |
| Oc1ccc(-c2ccc(O)cc2)cc1 | 17.8 (≈ 95.6 µM) | 13.9 (≈ 74.6 µM) | 0.4 | 5.1 (≈ 27.4 µM) | 0.3 | – | – | – | – |
| Nc1ccc(-c2ccccc2O)cc1 | 52 (≈ 281 µM) | 27.3 (≈ 147 µM) | 1.2 | 31 (≈ 167 µM) | 0.6 | – | – | – | – |
| COc1cccc(-c2ccccc2O)c1 | 43 (≈ 215 µM) | 35 (≈ 175 µM) | 1.1 | 39 (≈ 195 µM) | 0.9 | – | – | – | – |
| COc1ccc(-c2ccccc2)cc1 | > 100 | 45 (≈ 244 µM) | 0.4 | 17 (≈ 92.3 µM) | < 0.2 | – | – | – | – |
| Nc1cccc(-c2cccc(O)c2)c1 | 99 (≈ 534 µM) | 54 (≈ 292 µM) | 0.9 | 50.1 (≈ 270 µM) | 0.5 | – | – | – | – |
| COc1ccc(-c2ccccc2)cc1OC | 45 (≈ 210 µM) | 41 (≈ 191 µM) | 0.6 | 26 (≈ 121 µM) | 0.6 | – | – | – | – |
| Nc1cccc(-c2ccccc2O)c1 | 28 (≈ 151 µM) | 49 (≈ 265 µM) | 1 | 47 (≈ 254 µM) | 1.7 | – | – | – | – |
| Nc1ccc(-c2cccc(O)c2)cc1 | > 100 | 49.3 (≈ 266 µM) | 1.1 | 55 (≈ 297 µM) | < 0.6 | – | – | – | – |
| Oc1cccc(-c2ccccc2O)c1 | > 100 | 5.2 (≈ 27.9 µM) | > 19 | > 100 | – | 57 | 18 | 87 | 10 |
| COc1ccc(-c2ccccc2O)cc1 | 42 (≈ 210 µM) | 47 (≈ 235 µM) | 0.9 | 44 (≈ 220 µM) | 1 | – | – | – | – |
| Nc1ccc(-c2ccc(O)cc2)cc1 | 49.9 (≈ 269 µM) | 56 (≈ 302 µM) | 1.1 | 62 (≈ 335 µM) | 1.2 | – | – | – | – |
| COc1ccc(-c2cccc(O)c2)c(OC)c1 | 50.2 (≈ 218 µM) | 54 (≈ 235 µM) | 0.5 | 28 (≈ 122 µM) | 0.6 | – | – | – | – |
| COc1ccc(-c2cccc(N)c2)c(OC)c1 | > 100 | 49 (≈ 214 µM) | 0.6 | 29.2 (≈ 127 µM) | < 0.3 | – | – | – | – |
| Nc1ccccc1-c1ccc(O)cc1 | 44.3 (≈ 239 µM) | 51 (≈ 275 µM) | 1 | 50 (≈ 270 µM) | 1.1 | – | – | – | – |
